Reference: patent publication US20130071400A1, “LINGO binding molecules and Pharmaceutical Use Thereof” (NOVARTIS AG, priority 2006, published 2013)

Test system: postnatal day 7 rat cerebellar granule neurons (CGN)
Test: Neurite outgrowth inhibition assay on spinal cord myelin
Type: cell-based
Method: A) P7 CGN cells are incubated for 16 hr on wells coated without spinal cord myelin (no SC, white bars) or wells coated with spinal cord myelin in the absence (SC, red bars) or presence of anti-LINGO-1 IgG4 antibodies, a control anti-lysozyme IgG4 antibody 3207 (green bars) or […] of the ROCK inhibitor Y27632 (yellow bar). […] The experiment is performed in three 96 well plates with an SC and no SC condition per plate to which the effects of the antibodies on that plate are compared and mean neurite length per neuron (μm) is calculated for 500 neurons per well in replicates of 10. The percentage inhibition (white text) is calculated as the percentile difference in mean neurite length/neuron between cells plated on wells coated with and without SC. The percentage disinhibition (black italic text) is calculated as the difference in mean neurite length between cells plated on SC in the presence and absence of anti-LINGO-1 antibody as a percentile of the difference between cells plated on wells coated with and without SC. *p<0.05, **p<0.01 (one way ANOVA, Holm-Sidak comparison to mean neurite length/neuron for cells plated on spinal cord myelin in the absence of antibody).
A) P7 CGN cells are incubated for 8 hr on wells coated without spinal cord myelin (no SC, white bars) or wells coated with spinal cord myelin in the absence (SC, red bars) or presence of anti-LINGO-1 IgG4 antibodies or a control anti-lysozyme IgG4 antibody 3207. The experiment is performed in three 96 well plates with an SC and no SC condition per plate to which the effects of the antibodies on that plate are compared and mean neurite length per neuron (μm) is calculated for 500 neurons per well in replicates of 10. The percentage inhibition (white text) and disinhibition (black italic text) is calculated as above. **p<0.01 (one way ANOVA, Holm-Sidak comparison to mean neurite length/neuron for cells plated on spinal cord myelin in the absence of antibody).
P7 CGN cells are incubated for 8 hr on wells coated without spinal cord myelin (no SC) or wells coated with spinal cord myelin in the absence (SC) or presence of the indicated concentrations of anti-LINGO-1 IgG4 antibodies 4784 or 4785, a control anti-lysozyme IgG4 antibody 3207 or 1 μM Y27632 (ROCK). The experiment is performed in three 96 well plates with an SC and no SC condition per plate to which the effects of the antibodies on that plate are compared and mean neurite length per neuron (μm) is calculated for 500 neurons per well in replicates of 10. The percentage inhibition (white text) and disinhibition (black italic text) is calculated as above. *p<0.05, **p<0.01 (one way ANOVA, Holm-Sidak comparison to mean neurite length/neuron for cells plated on spinal cord myelin in the absence of antibody). […]

C[C@@H](N)[C@H]1CC[C@H](C(=O)Nc2ccncc2)CC1 [Y27632, reference compound]
disinhibition of spinal cord myelin (1 μM Y27632, 8 hr incubation (FIG. 4)): 65-74% | disinhibition of spinal cord myelin (neurite outgrowth) (1 μm Y27632, 16 hr incubation (FIG. 2), compared to 4784 and 4785): greater level of disinhibition
